Data on 21 compounds can be found in patent publication US20060045953A1 (priority 2004, published 2006).

Where two headings read alike, the source gives them in different places.

In this experiment the target is T1, hT1R1/hT1R3 umami receptor (Homo sapiens, UniProt Q7RTX0+Q7RTX1).
T1 construct: expressed in transfected cells; host or cells: HEK293 derivative stably expressing Gα15, clone I-17, expression induced with mifepristone
T1 sequence (Q7RTX1 21-841): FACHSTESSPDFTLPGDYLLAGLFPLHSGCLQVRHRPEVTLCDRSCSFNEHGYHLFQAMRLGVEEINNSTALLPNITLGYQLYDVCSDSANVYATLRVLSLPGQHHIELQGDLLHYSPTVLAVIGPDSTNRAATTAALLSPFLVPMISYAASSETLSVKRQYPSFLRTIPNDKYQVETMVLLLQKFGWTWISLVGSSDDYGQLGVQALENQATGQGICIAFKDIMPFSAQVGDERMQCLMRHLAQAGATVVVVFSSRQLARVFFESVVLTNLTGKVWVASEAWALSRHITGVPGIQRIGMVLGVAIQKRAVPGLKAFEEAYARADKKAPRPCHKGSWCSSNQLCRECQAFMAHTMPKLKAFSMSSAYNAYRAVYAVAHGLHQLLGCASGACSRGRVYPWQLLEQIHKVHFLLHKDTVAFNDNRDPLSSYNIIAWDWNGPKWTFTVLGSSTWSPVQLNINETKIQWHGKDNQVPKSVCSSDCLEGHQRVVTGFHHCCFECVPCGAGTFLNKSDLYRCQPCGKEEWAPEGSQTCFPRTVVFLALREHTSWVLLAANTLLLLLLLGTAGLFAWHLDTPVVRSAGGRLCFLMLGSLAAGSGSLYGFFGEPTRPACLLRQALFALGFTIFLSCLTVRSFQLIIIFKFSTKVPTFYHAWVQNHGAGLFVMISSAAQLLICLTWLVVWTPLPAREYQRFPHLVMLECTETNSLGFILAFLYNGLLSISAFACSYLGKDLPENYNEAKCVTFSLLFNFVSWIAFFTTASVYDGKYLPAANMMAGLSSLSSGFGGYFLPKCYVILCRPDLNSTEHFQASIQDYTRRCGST
T1 sequence (Q7RTX0 21-852): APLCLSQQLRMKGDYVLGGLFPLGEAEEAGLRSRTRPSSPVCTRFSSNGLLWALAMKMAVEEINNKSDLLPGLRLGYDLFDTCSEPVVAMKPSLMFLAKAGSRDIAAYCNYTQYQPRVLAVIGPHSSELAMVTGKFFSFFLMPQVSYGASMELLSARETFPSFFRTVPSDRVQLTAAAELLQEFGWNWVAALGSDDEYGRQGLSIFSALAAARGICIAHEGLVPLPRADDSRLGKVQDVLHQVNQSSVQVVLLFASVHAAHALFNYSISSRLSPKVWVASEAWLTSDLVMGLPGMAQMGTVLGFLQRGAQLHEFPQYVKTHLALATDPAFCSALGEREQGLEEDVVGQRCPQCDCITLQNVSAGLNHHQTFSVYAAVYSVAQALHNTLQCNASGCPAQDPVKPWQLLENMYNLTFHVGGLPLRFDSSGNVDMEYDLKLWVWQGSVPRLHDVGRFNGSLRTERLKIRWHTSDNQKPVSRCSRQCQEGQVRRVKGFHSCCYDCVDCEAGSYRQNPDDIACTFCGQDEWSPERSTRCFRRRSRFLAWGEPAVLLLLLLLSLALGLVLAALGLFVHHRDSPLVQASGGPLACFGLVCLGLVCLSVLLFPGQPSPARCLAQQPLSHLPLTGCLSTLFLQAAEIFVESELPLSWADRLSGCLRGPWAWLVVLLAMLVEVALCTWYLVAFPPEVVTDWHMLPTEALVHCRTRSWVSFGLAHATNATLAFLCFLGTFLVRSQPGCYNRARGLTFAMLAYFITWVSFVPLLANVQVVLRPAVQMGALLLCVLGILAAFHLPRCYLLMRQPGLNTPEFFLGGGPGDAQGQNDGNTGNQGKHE
Put plainly: In vitro hT1R1/hT1R3 umami taste receptor activation assay (FLIPR, dose response). The experiment is classed as cell-based. From the text: In order to identify new savory flavoring agents and enhancers, including compounds with savory agonist and enhancer activities (dual activity), the compounds of Formula (I) were screened in primary assays and secondary assays including compound dose response and enhancement assay. In a primary assay for potential ability to modulate umami taste, amide compounds of Formula (I) that can be either savory flavoring agents in their own right or flavor enhancers of MSG are identified and scores of their activities are given as percentage of the maximum MSG intensity (%). In compound dose response, an EC50 is calculated to reflect the potency of the compound as a savory agonist or enhancer.
An HEK293 cell line derivative (See e.g., Chandrashekar, et al., Cell (2000) 100: 703-711) which stably expresses Gα15 and hT1R1/hT1R3 under an inducible promoter (see WO 03/001876 A2) was used to identify compounds with savory tasting properties.
For dose-responses analysis, stimuli were presented in duplicates at 10 different concentrations ranging from 1.5 nM to 30 μM. Activities were normalized to the response obtained with 60 mM monosodium glutamate, a concentration that elicits maximum receptor response. […] Identical results were obtained when analyzing the dose-response data using commercially available software for non-linear regression analysis such as GraphPad PRISM (San Diego, Calif.).

[1] abbreviates: Table C, Umami Ureas, read-out: Umami EC50.
Where [2] appears, read: Table A, Umami Amides, read-out: Umami EC50.
Setting [3] is: read-out: EC50 for activation of a hT1R1/hT1R3 umami receptor expressed in an HEK293 cell line.

Regarding `CCC(CC(C)C)NC(=O)Nc1ccc2c(c1)OCO2` (stereo not drawn) [Example C25, 1-(benzo[d][1,3]dioxol-5-yl)-3-(5-methylhexan-3-yl)urea], under setting [1], the EC50 was 480 nM.
As for `COC(=O)[C@@H](CC(C)C)NC(=O)c1ccc(C)cc1` [Example A69, (R)-methyl 4-methyl-2-(4-methylbenzamido)pentanoate], under setting [2], the EC50 came to 320 nM.
For the compound `COc1ccc(CNC(=O)c2ccc(-c3ccccn3)s2)c(OC)c1` [Example 109, 5-Pyridin-2-yl-thiophene-2-carboxylic acid 2,4-dimethoxy-benzylamide], the EC50 under setting [3] turned out to be 2860 nM.
On the same count and under the same terms, the figure for `CCCC(CCC)NC(=O)c1ccc2ncccc2c1` [Example 101, N-(heptan-4-yl)quinoline-6-carboxamide] is 3200 nM; for `CCc1ccc(CCNC(=O)c2ccc3c(c2)OCO3)cc1` [Example 112, Benzo[1,3]dioxole-5-carboxylic acid [2-(4-ethyl-phenyl)-ethyl]-amide] it is 3860 nM.
On to `O=C(N[C@H]1CCOc2ccccc21)c1cccc(Cl)c1O` [Example A115, (s)-3-chloro-N-(chroman-4-yl)-2-hydroxybenzamide], for which the EC50 under setting [2] was 5000 nM.
The same measure, in the same setting: the value for `COc1ccc2c(c1)CCC2NC(=O)c1cccc(OC)c1N` (stereo not drawn) [Example A126, 2-amino-3-methoxy-N-(5-methoxy-2,3-dihydro-1H-inden-1-yl)benzamide] was 40 nM.
Still for that read-out and setting: the value for `CCCC(CCC)NC(=O)c1cc(COC)c(CC)o1` [Example A117, 5-ethyl-N-(heptan-4-yl)-4-(methoxymethyl)furan-2-carboxamide] was 30 nM; that for `CCSc1ccc(C(=O)N[C@H](CC(C)C)C(=O)OC)cc1` [Example A60, (R)-methyl 2-(4-(ethylthio)benzamido)-4-methylpentanoate] was 200 nM; that for `COc1ccc2oc(C(=O)NC(C(C)C)C(C)C)cc2c1` [Example A17, N-(2,4-dimethylpentan-3-yl)-5-methoxybenzofuran-2-carboxamide] was 1200 nM.
As to `CCCC(CCC)NC(=O)c1ccc2c(c1)OCCO2` [Example 23, 2,3-Dihydro-benzo[1,4]dioxine-6-carboxylic acid (1-propyl-butyl)-amide], under setting [3], the EC50 turned out to be 490 nM.
As to `CCCC(NC(=O)Nc1ccc2c(c1)OCO2)C(C)C` (stereo not drawn) [Example C28, 1-(benzo[d][1,3]dioxol-5-yl)-3-(2-methylhexan-3-yl)urea], the EC50 under setting [1] amounted to 570 nM.
As to `CCCC(CCC)NC(=O)c1cc(OC)nc(OC)n1` [Example A122, N-(heptan-4-yl)-2,6-dimethoxypyrimidine-4-carboxamide], the EC50 under setting [2] was found to be 220 nM.
On the same count and under the same terms, the value for `CCCC(C)NC(=O)c1ccc(OC)c(Cl)c1` (stereo not drawn) [Example A80, 3-chloro-4-methoxy-N-(pentan-2-yl)benzamide] was 470 nM.
With `O=C(Nc1ccccc1Cl)NC1CCCc2ccccc21` (stereo not drawn) [Example C7, 1-(2-chlorophenyl)-3-(1,2,3,4-tetrahydronaphthalen-1-yl)urea], under setting [1], the EC50 came to 990 nM.
For `CCCC(CCC)NC(=O)c1cccc(C)c1` [Example A83, (heptan-4-yl)-3-methylbenzamide], under setting [2], the EC50 came out at 520 nM.
Turning to `COC(=O)[C@@H](CC(C)C)NC(=O)c1cc(C)c(OC)c(C)c1` [Example A95, (R)-methyl 2-(4-methoxy-3,5-dimethylbenzamido)-4-methylpentanoate], the EC50 under setting [2] is 740 nM.
On the same count and under the same terms, the value for `C=Cc1ccc(C(=O)N[C@H](CC(C)C)C(=O)OC)cc1` [Example A57, (R)-methyl 4-methyl-2-(4-vinylbenzamido)pentanoate] was 180 nM; that for `CCCC(CCC)NC(=O)c1cccc(CC)c1` [Example A116, 3-ethyl-N-(heptan-4-yl)benzamide] was 10 nM; that for `CCCC(CCC)NC(=O)c1cccc(C(F)(F)F)c1` [Example A70, N-(heptan-4-yl)-3-(trifluoromethyl)benzamide] was 330 nM.
For the compound `COc1ccc(C(=O)NC2CCc3cccc(C)c32)cc1C` (stereo not drawn) [Example A129, 4-methoxy-3-methyl-N-(7-methyl-2,3-dihydro-1H-inden-1-yl)benzamide], under setting [2], the EC50 was 1030 nM.
